Results published in patent US20200031920A1, “Combination Therapy for Treating Cancer” (The George Washington University, priority 2017, published 2020).

What was measured:
SKOV3 CR cells [1] = assay: cell viability / proliferation (SRB) assay, cisplatin resistant SKOV3 CR cells; assay type: cell-based; conditions: for sensitization of SKOV3 CR cells to cisplatin (proliferation): combination with cisplatin at different doses, FIG. 13: 0.4 μM LY2784544, five days; for medium CI (combination index): combination with cisplatin, CI<1 synergism
Experimental: (§1) FIG. 1 is a line graph showing the proliferation of SKOV3 parental and SKOV3 CR cells treated with increasing concentrations of cisplatin for five days. Data are represented as mean±SD from three independent experiments performed in triplicate. Indicated IC50 values represent the mean of two independent experiments performed in triplicate.
(§2) FIG. 13 is a line graph showing the proliferation of SKOV3 parental and SKOV3 CR cells treated with increasing concentrations of cisplatin and 0.4 μM LY2784544 for five days. Data are represented as mean±SD from three independent experiments performed in triplicate.
(§3) Cisplatin resistant ovarian cancer cell lines were generated using procedures as described previously. Jazaeri et al., Mol Cancer Ther 12: 1958-1967 (2013). Ovarian cancer cells SKOV3 were cultured in the medium with cisplatin (Sigma-Aldrich) for three weeks, followed by release to cisplatin-free medium for another three weeks. In the next cycle, the cisplatin treatment was repeated in the medium with an increased concentration of cisplatin. After six-cycle treatment, cells were identified that were able to grow in the medium with a high concentration of cisplatin. These cisplatin resistant cells were named as SKOV3 CR (FIG. 1).
(§4) The results obtained from combinational HTS were confirmed by testing whether LY2784544 overcomes cisplatin resistance in ovarian cancer cells using multiple assays. […] The Combination index (CI), which quantitatively describes the interaction between drugs including synergism (CI<1), additive effect (CI=1), and antagonism (CI>1), was calculated.

SKOV3 CR cells [2] = assay: combinational high throughput screen with cisplatin; assay type: cell-based; conditions: in combination with DMSO, 1 μM cisplatin or 20 μM cisplatin
Text: A combinational HTS using multiple compound libraries including NPC (NIH Pharmaceutical Collection), MIPE (Mechanism interrogation plate), and LOPAC (The Library of Pharmacologically Active Compounds) was used to identify compounds that can overcome cisplatin resistance of SKOV3 CR cells (FIG. 5). The library of pharmacologically active compounds (LOPAC®) of 1280 compounds (1) was purchased from Sigma. The NCGC Pharmaceutical Collection (NPC) of 2816 compounds and mechanism interrogation plate (MIPE) library of 1920 compounds were previously described. Bromberg, J Clin Invest 109: 1139-1142 (2002) and Buchert et al., Oncogene 35: 939-951 (2016). Compounds from all libraries were obtained as powder and dissolved in dimethyl sulfoxide (DMSO) […]. Combinational HTS was performed as previously described. Szasz et al., Oncotarget 7: 49322-49333 (2016). A total of 6,016 compounds were screened. […] In the second screen, these 112 compounds were selected for a dose-response confirmation screen in combination with DMSO, 1 μM cisplatin or 20 μM cisplatin (FIG. 5).

[3] = tested on: phosphorylation of JAK2 (Y1007/1008) and STAT5 (Y694); assay: western blot of JAK2/STAT5 signaling; assay type: cell-based
Experimental: FIG. 22 is an illustration showing that LY2784544 down-regulates JAK2/STAT5 signaling in SKOV3 CR cells. Cells were treated with the indicated concentrations of LY2784544 for 48 hr.
FIG. 23 is an illustration showing the immunoblotting for the indicated targets in SKOV3 CR cells treated with vehicle (DMSO), 3 μM LY2784544, 5 μM cisplatin, or the combination for 48 hr.
To investigate the molecular mechanism by which the JAK2-mediated pathway regulates cisplatin resistance of ovarian cancer, the activation of the JAK2-mediated pathway in paired sensitive cell line (SKOV3, IGROV1, PEO1) and resistant cell lines (SKOV3 CR, IGROV1 CR, PEO4) was examined by western blot. Compared to cisplatin sensitive cells SKOV3 or IGROV1, the JAK2 protein levels are not changed in cisplatin resistant cells SKOV3 CR, IGROV1 CR, or PEO4.
The effects of LY2784544 on the JAK2/STAT5 signaling pathway in both SKOV3 and SKOV3 CR cells were examined.

IL-11 = IL-11 secretion by ELISA in cell culture medium; assay type: cell-based, human; conditions: 24 hr
Experimental: (§5) FIG. 69 are bar graphs ((A)-(C) and (E)-(F)) and illustrations ((D) and (G)) showing that reactive oxygen species (ROS) induces IL-11 expression. (A) is a bar graph showing quantification of ROS production in SKOV3 and SKOV3 CR cells. Data are represented as means±SD from three independent experiments. **p<0.01. Scale bar, 100 μm. (B) is a bar graph showing quantification of ROS production in SKOV3 CR cells after treatment with the ROS inhibitor YCG063 at 20 μM for 24 hr. Data are represented as means±SD from three independent experiments. ***p<0.001. (C) is a bar graph showing IL-11 levels measured by ELISA in the medium of SKOV3 CR cells treated with YCG063 at 20 μM for 24 hr. Data are represented as mean±SD from three independent experiments performed in triplicate. ***p<0.001. (D) is an illustration showing an immunoblot of phosphorylated JAK2 and STAT5 in SKOV3 CR cells treated with YCG063 (20 μM) for 24 hr. (E) is a bar graph showing quantification of ROS production in SKOV3 cells after treated with the ROS inhibitor YCG063 (20 μM), cisplatin (1 μM), or both for 24 hr. Data are represented as means±SD from three independent experiments. **p<0.01, ***p<0.001, n.s. means not significant by one-way ANOVA. (F) is a bar graph showing IL-11 levels measured by ELISA in SKOV3 cells treated with YCG063 (20 μM), cisplatin (1 μM) or both for 24 hr. Data are represented as mean±SD from three independent experiments performed in triplicate. ***p<0.001 by one-way ANOVA. (G) is an illustration showing an immunoblot of phosphorylated JAK2 and STAT5 in SKOV3 CR cells treated with YCG063 (20 μM), cisplatin (1 μM) or both for 24 hr.
Next, the factor from medium that contributes to cisplatin resistance of SKOV3 CR cells was investigated. […] The cell-free culture medium, mouse serum, and patient serum were analyzed for IL-11 levels using a human IL-11 ELISA kit (R&D Systems) according to the manufacturer's instructions. The absorbance was read at 450 nm using a microplate reader (BioTek). The data were normalized to the cell number. […]

[4] = tested on: reactive oxygen species (ROS); assay: ROS production (CellROX Orange reagent); assay type: cell-based; conditions: SKOV3 cells, YCG063 20 μM, cisplatin 1 μM, 24 hr
Experimental: as §5, with “(D) is an illustration showing an immunoblot of phosphorylated JAK2 and STAT5 in SKOV3 CR cells treated with YCG063 (20 μM) for 24 hr.” left out, “Data are represented as means±SD from three independent experiments. **p<0.01, ***p<0.001, n.s. means not significant by one-way ANOVA.” left out, “Data are represented as mean±SD from three independent experiments performed in triplicate. ***p<0.001 by one-way ANOVA. (G) is an illustration showing an immunoblot of phosphorylated JAK2 and STAT5 in SKOV3 CR cells treated with YCG063 (20 μM), cisplatin (1 μM) or both for 24 hr.” left out
DNA damage induces generation of reactive oxygen species (ROS). […] ROS was detected with a live cell-permeable, fluorophore CellROX Orange reagent (Thermo Fisher Scientific) according to the manufacturer's instructions. […] ROS intensity was analyzed using ImageJ (NIH) software. […]

FRA1 = assay: immunoblot of phosphorylated and total FRA1; assay type: cell-based; conditions: SKOV3 CR cells, 20 μM, 24 hr
Text: FIG. 70 are illustrations ((A), (B), and (D)) and a bar graph (C) showing that ROS induces IL-11 expression by promoting expression of FOSL1 (FRA1). (A) is an illustration showing total and phosphorylated levels of FRA1 in SKOV3 and SKOV3 CR cells. […] (C) is a bar graph showing IL-11 levels measured by ELISA in the medium of SKOV3 CR cells transfected with FOSL1 siRNA for 48 hr. Data are represented as mean±SD from three independent experiments performed in triplicate. ***p<0.001. (D) is an illustration showing an immunoblot of phosphorylated and total FRA1 protein in SKOV3 CR cells treated with YCG063 20 μM for 24 hr.
To achieve this goal, pathway analyses using PathwayNet were conducted, which identified a total of 20 transcription factors that likely regulate IL-11. […] It was next tested whether ROS is required for activation or expression of FRA1 by treating SKOV3 CR cells with YGC063.

SKOV3 cells = assay: cell viability / proliferation (SRB) assay, SKOV3 parental cells; assay type: cell-based
Experimental: as §1, §2, §3, §4

**Q.** With NS(=O)(=O)OC[C@@H]1C[C@@H](n2ccc3c(N[C@H]4CCc5ccccc54)ncnc32)C[C@@H]1O [MLN4924] as the molecule, how does the “sensitization of SKOV3 CR cells to cisplatin (proliferation)” value (SKOV3 CR cells [1]) read?
**A.** Its value is “can sensitize SKOV3 CR cells to cisplatin”.

**Q.** What about the “sensitization to cisplatin in second (dose-response confirmation) screen” value (SKOV3 CR cells [2]) of the same molecule?
**A.** The value was “significantly sensitize SKOV3 CR cells to cisplatin”.

**Q.** How did the “sensitization of SKOV3 CR cells to cisplatin (proliferation)” value (SKOV3 CR cells [1]) turn out when C/C(=N\NC(=S)N1CCC1)c1ccccn1 [NSC319726] was run?
**A.** The value was “can sensitize SKOV3 CR cells to cisplatin”.

**Q.** What about the “sensitization to cisplatin in second (dose-response confirmation) screen” value (SKOV3 CR cells [2]) of the same molecule?
**A.** Its value is “significantly sensitize SKOV3 CR cells to cisplatin”.

**Q.** Which “medium CI (combination index)” value (SKOV3 CR cells [1]; SKOV3 CR cells) does the source give for Cc1cnc(Nc2ccc(CN3CCOCC3)cc2)nc1Nc1cccc(S(=O)(=O)NC(C)(C)C)c1 [TG46] here?
**A.** The value was 0.77.

**Q.** With Cc1cnc(Nc2ccc(OCCN3CCCC3)cc2)nc1Nc1cccc(S(=O)(=O)NC(C)(C)C)c1 [TG101348] as the molecule, how does the “medium CI (combination index)” value (SKOV3 CR cells [1]; SKOV3 CR cells) read?
**A.** Its value is 0.77.

**Q.** CCCCCOc1ccc(/C=N/NC(=O)CSc2c([N+](=O)[O-])ncn2C)cc1 [YCG063] was tested. Which “phosphorylation of JAK2 and STAT5” value ([3]; SKOV3 CR cells, YCG063 20 μM, 24 hr) did it give?
**A.** The value was “significantly reduced”.

**Q.** And the IL-11 secretion (IL-11; SKOV3 CR cells, YCG063 20 μM)?
**A.** The IL-11 secretion was “significantly reduced IL-11 secretion”.

**Q.** And the “cisplatin-induced IL-11 secretion” value (IL-11; SKOV3 cells, YCG063 20 μM with cisplatin 1 μM)?
**A.** Its value is “suppressed cisplatin-induced IL-11 secretion”.

**Q.** And the ROS production [4]?
**A.** The ROS production was “suppressed ROS production in SKOV3 cells”.

**Q.** What about the “expression and phosphorylation of FRA1” value (FRA1) of the same molecule?
**A.** The value was “reduced the expression of FRA1 as well as its phosphorylation”.

**Q.** What does the source list for N.N.O=C([O-])C1(C(=O)[O-])CCC1.[Pt+2] [carboplatin]?
**A.** fold increase of IC50, SKOV3 CR compared to parental SKOV3 (SKOV3 CR cells [1]; 5 days): 4 fold; IC50 (SKOV3 CR cells [1]; SKOV3 CR cells, 5 days): 118 µM; IC50 (SKOV3 cells; SKOV3 parental cells, 5 days): 25.2 µM

B1: recombinant IL-11: recombinant human IL-11 (R&D Systems) (protein, UniProt P20809 22-199, looked up)
Interleukin-11: PGPPPGPPRVSPDPRAELDSTVLLTRSLLADTRQLAAQLRDKFPADGDHNLDSLPTLAMSAGALGALQLPGVLTRLRADLLSYLRHVQWLRRAGGSSLKTLEPELGTLQARLDRLLRRLQLLMSRLALPQPPPDPPAPPLAPPSSAWGGIRAAHAILGGLHLTLDWAVRGLLLLKTRL
**Q.** B1 was tested. Which “phosphorylation of JAK2 and STAT5” value ([3]; SKOV3 parental cells, 10 ng/mL IL-11 for 4 hr) did it give?
**A.** Its value is “did increase the phosphorylation of JAK2 (Y1007/1008) as well as phosphorylation of STAT5 (Y694)”.

**Q.** And the “resistance of SKOV3 cells to cisplatin (proliferation)” value (SKOV3 cells; IL-11 for 4 hr then cisplatin 5 days)?
**A.** Its value is “significantly increased its resistance to cisplatin”.
